Test results as given in US7033509B2 (priority 2000, dated 2006).
Several values for one entry are separate records, joined by “and”; a condition that tells them apart may be missing. Equal values may be shown once. Read-outs that look alike come from different tables or passages of the source.

Tests used:
[1] = system: bacteria on the surface of peach; assay type: cell-based
[2] = system: fungi on the surface of peach; assay type: cell-based
[3] = system: bacteria on the surface of potato; assay type: cell-based
[4] = system: fungi on the surface of potato; assay type: cell-based
[5] = system: bacteria on the surface of lettuce; assay type: cell-based
[6] = system: fungi on the surface of lettuce; assay type: cell-based
[7] = system: bacteria on the surface of apple; assay type: cell-based
[8] = system: fungi on the surface of apple; assay type: cell-based
[9] = system: bacteria on the surface of strawberry; assay type: cell-based
[10] = system: fungi on the surface of strawberry; assay type: cell-based
[11] = system: bacteria on the surface of avocado; assay type: cell-based
[12] = system: fungi on the surface of avocado; assay type: cell-based
[13] = system: bacteria on the surface of rockmelon; assay type: cell-based
[14] = system: fungi on the surface of rockmelon; assay type: cell-based
[15] = system: bacteria on the surface of orange; experiment: Orange (L) laboratory dipping, bacteria; assay type: cell-based; conditions: concentrations of 3, 10 & 30 ppm iodine used
[16] = system: fungi on the surface of orange; experiment: Orange (L) laboratory dipping, fungi; assay type: cell-based; conditions: concentrations of 3, 10 & 30 ppm iodine used
[17] = system: bacteria on the surface of nectarine; experiment: Nectarine (L) laboratory dipping, bacteria; assay type: cell-based; conditions: concentrations of 3, 10 & 30 ppm iodine used
[18] = system: fungi on the surface of nectarine; experiment: Nectarine (L) laboratory dipping, fungi; assay type: cell-based; conditions: concentrations of 3, 10 & 30 ppm iodine used
[19] = system: bacteria on the surface of potato; experiment: Potato (L) laboratory dipping, bacteria; assay type: cell-based; conditions: concentrations of 3, 10 & 30 ppm iodine used
[20] = system: fungi on the surface of potato; experiment: Potato (L) laboratory dipping, fungi; assay type: cell-based; conditions: concentrations of 3, 10 & 30 ppm iodine used
[21] = system: bacteria on the surface of tomato; experiment: Tomato (L) laboratory dipping, bacteria; assay type: cell-based; conditions: 10, 20, 30 ppm iodine
[22] = system: fungi on the surface of tomato; experiment: Tomato (L) laboratory dipping, fungi; assay type: cell-based; conditions: 10, 20, 30 ppm iodine
[23] = system: bacteria on the surface of lettuce; experiment: Lettuce (L) laboratory dipping, bacteria; assay type: cell-based; conditions: 10, 20, 30 ppm iodine
[24] = system: fungi on the surface of lettuce; experiment: Lettuce (L) laboratory dipping, fungi; assay type: cell-based; conditions: 10, 20, 30 ppm iodine
bacteria on bean sprouts = experiment: Bean sprouts (ISU), bacteria; assay type: cell-based; conditions: 10, 20, 30 ppm iodine
fungi on bean sprouts = experiment: Bean sprouts (ISU), fungi; assay type: cell-based; conditions: 10, 20, 30 ppm iodine
[25] = system: bacteria and fungi found on fresh fruit and vegetables; experiment: Summary of efficacy results: comparison bacteria/fungi and iodine/chlorine; assay type: cell-based
[26] = system: naturally occurring surface organisms on fruits and vegetables; experiment: Dipping time effect on efficacy (potatoes, oranges); assay type: cell-based, bacteria and fungi; conditions: iodine dips, one to four minutes
Escherichia coli = conditions: compared with chlorine, especially at the higher temperature and pH values; cited from earlier work

II
Bacteria—dose for ~1.5 log10 reduction [1]: 10 ppm
Fungi—dose for ~1.5 log10 reduction [2]: 30 ppm
Bacterial population per cm^2 Actual count [3]: 370 per cm^2 and 260 per cm^2 and 249 per cm^2
Bacterial population per cm^2 Log10 count [3]: 2.54 log10 units and 2.34 log10 units and 2.38 log10 units
Bacterial population per cm^2 Log10 reduction [3]: 0.39 ab log10 units and 0.58 b log10 units and 0.54 b log10 units
Bacteria—dose for ~1.5 log10 reduction [3]: >30 ppm
Fungal population per cm^2 Actual count [4]: 2 per cm^2 and 3 per cm^2
Fungi—dose for ~1.5 log10 reduction [4]: 10 ppm
Bacteria—dose for ~1.5 log10 reduction [5]: 20 ppm
Fungal population per cm^2 Log10 count [6]: −0.12 log10 units and −0.35 log10 units
Fungi—dose for ~1.5 log10 reduction [6]: 10 ppm
Bacteria—dose for ~1.5 log10 reduction [7]: 10 ppm
Fungi—dose for ~1.5 log10 reduction [8]: 10 ppm
Bacteria—dose for ~1.5 log10 reduction [9]: >30 ppm
Fungi—dose for ~1.5 log10 reduction [10]: 30 ppm
Bacteria—dose for ~1.5 log10 reduction [11]: 10 ppm
Fungi—dose for ~1.5 log10 reduction [12]: 20 ppm
Bacterial population per cm^2 Actual count [13]: 19,514 per cm^2 and 14,456 per cm^2 and 10,028 per cm^2
Bacterial population per cm^2 Log10 count [13]: 4.26 log10 units and 4.15 log10 units and 3.98 log10 units
Bacterial population per cm^2 Log10 reduction [13]: 0.83 b log10 units and 0.93 bc log10 units and 1.10 cd log10 units
Bacteria—dose for ~1.5 log10 reduction [13]: >30 ppm
Fungi—dose for ~1.5 log10 reduction [14]: 20 ppm
Bacteria—dose for ~1.5 log10 reduction [15]: 30 ppm
Fungi—dose for ~1.5 log10 reduction [16]: 30 ppm
Bacteria—dose for ~1.5 log10 reduction [17]: 3.3 ppm
Fungi—dose for ~1.5 log10 reduction [18]: 10 ppm
Bacteria—dose for ~1.5 log10 reduction [19]: >30 ppm
Fungi—dose for ~1.5 log10 reduction [20]: >30 ppm
Bacteria—dose for ~1.5 log10 reduction [21]: 20 ppm
Fungi—dose for ~1.5 log10 reduction [22]: 20 ppm
Bacteria—dose for ~1.5 log10 reduction [23]: 30 ppm
Fungi—dose for ~1.5 log10 reduction [24]: >30 ppm
Bacteria—dose for ~1.5 log10 reduction (bacteria on bean sprouts): 30 ppm
Fungi—dose for ~1.5 log10 reduction (fungi on bean sprouts): 30 ppm
Better Control of Bacteria/Fungi ([25]; Apples (ISU)): Fungi
Better control by iodine/chlorine ([25]; Apples (ISU)): Iodine
Better Control of Bacteria/Fungi ([25]; Avocado (ISU)): Bacteria
Better control by iodine/chlorine ([25]; Avocado (ISU)): Iodine
Better control by iodine/chlorine ([25]; Bean sprouts (ISU)): Iodine
Better Control of Bacteria/Fungi ([25]; Lettuce (ISU)): Fungi
Better control by iodine/chlorine ([25]; Lettuce (ISU)): Iodine
Better Control of Bacteria/Fungi ([25]; Lettuce (L)): Bacteria
Better control by iodine/chlorine ([25]; Lettuce (L)): Chlorine
Better Control of Bacteria/Fungi ([25]; Nectarine (L)): Bacteria
Better control by iodine/chlorine ([25]; Nectarine (L)): Iodine
Better Control of Bacteria/Fungi ([25]; Orange (L)): Bacteria
Better control by iodine/chlorine ([25]; Orange (L)): Chlorine
Better Control of Bacteria/Fungi ([25]; Peach (L)): Bacteria
Better control by iodine/chlorine ([25]; Peach (L)): Iodine
Better Control of Bacteria/Fungi ([25]; Potato (ISU)): Fungi
Better control by iodine/chlorine ([25]; Potato (ISU)): Iodine
Better Control of Bacteria/Fungi ([25]; Potato (L)): Fungi
Better control by iodine/chlorine ([25]; Potato (L)): Iodine
Better Control of Bacteria/Fungi ([25]; Rockmelon (ISU)): Fungi
Better control by iodine/chlorine ([25]; Rockmelon (ISU)): Same effectiveness
Better Control of Bacteria/Fungi ([25]; Strawberry (ISU)): Fungi
Better control by iodine/chlorine ([25]; Strawberry (ISU)): Iodine
Better Control of Bacteria/Fungi ([25]; Tomato (L)): Fungi
Better control by iodine/chlorine ([25]; Tomato (L)): Iodine
effectiveness compared with an equivalent concentration of chlorine ([25]; over the range of products and concentrations used): considerably more effective
effect of dip time on effectiveness [26]: equivalent in effectiveness to doubling the dip concentration
efficiency for the control of Escherichia coli in dirty water (Escherichia coli): greater than that of chlorine
